Data: patent US20150018418A1, “COMPOSITIONS AND METHODS FOR PROLONGING PREGNANCY” (priority 2013, published 2015)

Tests used:
[1] = tested on: preterm labor / premature birth; conditions: cited from earlier work
[2] = tested on: pregnant human female in PTL (uterine contractions); conditions: Example 1
Experimental: A pregnant person, at 29.5 weeks gestation, presented to the hospital in PTL during their first pregnancy. […] The patient's parent experienced PTL during one of their pregnancies, leading to premature birth of the patient at 30 weeks gestation. The patient's sibling also had experienced PTL with one of their pregnancies resulting in premature birth at 36 weeks gestation.
The patient was diagnosed with PTL and started on nifedipine 20 mg by mouth every 6 hours for tocolysis and magnesium sulfate 6 g as an intravenous infusion over 30 minutes followed by 2 g per hour for the next 12 hours for fetal neuroprotection. […] A course of steroids were also given for fetal lung maturation.
The patient then enrolled in a study conducted in advancement of the present disclosure and began therapy with gabapentin 300 mg, 3×/day (900 mg/day total). […] The following day the patient was discharged home only on gabapentin 300 mg, 3×/day and their previous outpatient dose of atenolol at 50 mg a day. […] They were instructed to increased their gabapentin dose to 600 mg, 3×/day.
Gabapentin was not administered while the patient was in the hospital. […] The patient was discharged.
Such contractions are the hallmark of preterm labor, which is known to result in premature birth in 60% of cases.

[3] = Serum half-life and clearance of gabapentin in humans; format: in vivo; conditions: expected from the serum half-life
Description: The patient was discharged.

[4] = tested on: pregnant human in PTL (uterine contractions, uterine pressure); assay: Example 2: gabapentin maintenance therapy in a patient with preterm labor (case report); format: in vivo
Experimental: The cervix was dilated at 3.5-4 cm and regular uterine contractions were occurring at 11/hour. […] The uterine contractions slowly diminished and were completely resolved 14 hours after tocolysis was initiated.
The cervix was still 3.5-4 cm dilated at the time of enrollment. By the evening of the next day, the subject began feeling “uncomfortable” with a “pressure” feeling in their uterus. They were instructed the next day to increase their bedtime gabapentin dose to 600 mg and to continue 300 mg in the morning and in the afternoon. […] Two days later the subject reported feeling some recurrent uterine pressure especially noticeable for the hour before each gabapentin dose was taken. Gabapentin was increased to 600 mg, 3×/day and by the following day all of the pressure symptoms had resolved. The subject remained asymptomatic.
They continued on gabapentin 600 mg, 3×/day and remained asymptomatic. Three days later the subject noticed that their “water broke”. They were admitted to the hospital and confirmed to have preterm premature rupture of membranes (PPROM) with cervix still dilated to 4 cm. Gabapentin was continued at 600 mg, 3×/day. The subject remained asymptomatic throughout the next day; however, on the morning of the following day the subject began having regular uterine contractions about every 3-5 minutes and their cervix had now dilated to 7cm.
This discovery of gabapentin maintenance therapy resolving recurrent uterine contractions and pressure symptoms leading to a prolongation of pregnancy and preserving fetal survival is accordingly highly valuable to the public. Its value can be recognized at least in part because uterine contractions are an essential component of PTL, which precedes 40-50% of premature births (<37 weeks gestation) and as described above, premature birth occurs in 11.5% of all live births in the US, is the number one cause of neonatal mortality, and is responsible for half of the long-term neurological impairments in children. […]

[5] = nifedipine 20 mg by mouth every 6 hours, with i.v. magnesium sulfate for fetal neuroprotection

## CC(C)(C)NCC(O)c1cc(O)cc(O)c1 (stereo not shown) [terbutaline]
[1]; patients with recent or resolved PTL, versus placebo
  maintenance tocolysis for prolonging pregnancy: no more effective than maintenance placebo therapy

## NCC1(CC(=O)O)CCCCC1 [gabapentin, (1-aminomethyl)cyclohexaneacetic acid]
[2]; dose increased from 300 mg to 600 mg 3x/day, after the second 600 mg dose
  recurrent uterine cramping and uterine contraction feelings: fully resolved
[2]; gabapentin 300 mg 3x/day, resolved that same day
  side effects after the first dose: mild dizziness
[2]; gabapentin 600 mg 3x/day
  side effects from the higher dose: did not experience any side effects
  time remained stable without any uterine cramping: 16 days
[2]; gabapentin discontinued for 8 days
  outcome after discontinuation of maintenance therapy: associated with the IUFD
[1]; Fujii H, et al. Neurology 2013
  use during pregnancy and premature birth: associated with an increase in premature birth
[3]
  time to be fully cleared after discontinuation: about 30 hours
[4]; bedtime dose increased to 600 mg, 300 mg morning and afternoon, following morning
  uncomfortable pressure feeling in uterus: fully resolved
[4]; gabapentin increased to 600 mg 3x/day, by the following day
  recurrent uterine pressure symptoms: resolved

## COC(=O)C1=C(C)NC(C)=C(C(=O)OC)C1c1ccccc1[N+](=O)[O-] [nifedipine]
[2]; [5]
  time to complete resolution of uterine contractions after tocolysis was initiated: 12 h
[4]; [5]
  time to complete resolution of uterine contractions after tocolysis was initiated: 14 h

## O=S(=O)([O-])[O-].[Mg+2] [magnesium sulfate]
[2]; recurrent contractions, intravenous magnesium sulfate infusion 2 g/hour, gabapentin not administered
  time to resolution of all uterine contractions: ≤ 5 h
